Experimental data published in patent US7700347B2, “Methods and apparatuses for conducting assays in animals” (The Forsyth Institute, priority 2005, dated 2010).

Tested on: planaria
Assay: planaria movement (worm mobility) after drug treatment, automated tracking
Assay type: in vivo, Dugesia tigrinia
Conditions: 24 hours of drug treatment, movement observed for three hours, compared to control carrier (water+DMSO), statistically significant
Procedure: The following methods were used for Examples 5-8. The species of planaria used in these studies was Dugesia tigrinia, obtained from Ward's Natural Science. The planaria colonies were stored in natural spring water at 22.5° C., and kept on a 9 hour light/15 hour dark cycle. The colonies were fed once per week with organic beef liver. Their water was changed several hours after feeding and 3 days following each feeding. Worms were not fed (e.g., they were starved) the week they were used in an experiment because starved worms were less likely to fission during the experiment.
For the duration of an experiment, individual worms were placed in a reaction well and a plurality of reaction wells were arrayed, as shown in FIG. 10. The worms were not fed during the experiment. Each reaction well included electrodes made of a 90%/10% platinum/iridium alloy for delivering current. […]
FIG. 16 summarizes results depicting the effects of two agents on planaria behavior. Specifically, we assessed the effects of two psychiatric drugs that modulate serotonergic signaling, p-chlorophenylalanine (PCPA) and reserpine, on worm mobility.
Briefly, planaria were cultured in the presence of control carrier (water+DMSO), 625 micrograms/mL of PCPA, or 21 micrograms/mL of reserpine. […] The speed, position, and distance traveled of individual worms were monitored following drug treatment and compared to controls. […]

Structure (SMILES) | effect on planaria movement (worm movement, average speed) (625 micrograms/mL in culture) | effect on planaria movement (worm movement, average speed) (21 micrograms/mL in culture)
N[C@@H](Cc1ccc(Cl)cc1)C(=O)O (racemic) [PCPA, p-chlorophenylalanine] | increased planaria movement | 
COC(=O)[C@H]1[C@H]2C[C@@H]3c4[nH]c5cc(OC)ccc5c4CCN3C[C@H]2C[C@@H](OC(=O)c2cc(OC)c(OC)c(OC)c2)[C@@H]1OC [reserpine] |  | decreased planaria movement
